Reference: patent US20180318473A1, “DRUGS WITH IMPROVED HYDROPHOBICITY FOR INCORPORATION IN MEDICAL DEVICES” (Abraxis BioScience, LLC, priority 2005, published 2018)
Several values for one entry are separate records, joined by “and”; a condition that tells them apart may be missing. Identical values can stand only once. Like-named read-outs stand apart in the source and are kept apart here.

Legend:
albumin = albumin (Homo sapiens, UniProt P02768); assay: Binding of compounds to albumin
MX-1 mammary tumor cells [1] = assay: Cytotoxic activity on MX-1 mammary tumor cells in culture; details: for IC50: read-out: Cytotoxicity on MX-1, IC50
[2] = Hydrophobicity by relative elution time from a C18 HPLC column; type: physicochemical; details: for HPLC retention time (min) Condition 1: acetonitrile / ammonium acetate buffer pH 6.4 with 5 mM TBAP gradient, 0.8 mL/min; for HPLC retention time (min) Condition 1 / HPLC retention time (min) Condition 2: column temperature 35° C.; for HPLC retention time (min) Condition 2: acetonitrile/water gradient 50:50 to 90:10, 1 mL/min; for HPLC retention time (min) Condition 2, column temperature 70° C.: acetonitrile/water gradient, 1 mL/min, **column temperature was set at 70° C.
Source text: To increase the penetration and retention of a drug released from a device such as a stent into the vascular wall or wall of other vessel or tissue, several drugs were modified to increase their hydrophobicity. […] […] The longer the elution time, the more hydrophobic the compound.

MX-1 mammary tumor cells [3] = system: MX-1 mammary tumor cells
[4] = smaller number indicates greater binding affinity, read-out: Albumin Binding, KD
[5] = MX-1 mammary tumor cells in culture, drug itself

albumin, sequence (P02768 25-609, species assumed): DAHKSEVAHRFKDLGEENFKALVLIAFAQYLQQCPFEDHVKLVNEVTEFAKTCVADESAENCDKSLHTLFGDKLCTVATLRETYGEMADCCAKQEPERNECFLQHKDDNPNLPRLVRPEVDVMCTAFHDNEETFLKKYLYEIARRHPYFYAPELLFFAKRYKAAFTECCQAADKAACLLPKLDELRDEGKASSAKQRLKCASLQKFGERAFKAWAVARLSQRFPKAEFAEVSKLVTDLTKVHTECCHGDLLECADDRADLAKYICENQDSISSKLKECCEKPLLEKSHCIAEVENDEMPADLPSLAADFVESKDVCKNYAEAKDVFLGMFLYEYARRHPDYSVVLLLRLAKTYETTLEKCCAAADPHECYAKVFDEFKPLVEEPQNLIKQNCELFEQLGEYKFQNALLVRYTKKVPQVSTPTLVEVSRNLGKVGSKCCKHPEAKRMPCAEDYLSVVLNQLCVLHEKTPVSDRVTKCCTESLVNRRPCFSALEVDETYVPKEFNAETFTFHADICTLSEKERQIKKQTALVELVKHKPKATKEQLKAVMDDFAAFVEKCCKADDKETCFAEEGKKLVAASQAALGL

Row | Compound | IC50 (MX-1 mammary tumor cells [1]; [5]) [µM] | HPLC retention time (min) Condition 1 [2] [min] | HPLC retention time (min) Condition 2 [2] | also measured
1 | CC(=O)OC1C(=O)C2(C)C(O)CC3OCC3(OC(C)=O)C2C(OC(=O)c2ccccc2)C2(O)CC(OC(=O)C(OC(=O)c3ccccc3)C(NC(=O)c3ccccc3)c3ccccc3)C(C)=C1C2(C)C (centres unmarked) [Compound 1] | 30 |  |  | Kd (albumin; [4]): 103 µM
2 | CC(=O)OC12COC1CC(O)C1(C)C(=O)C(O)C3=C(C)C(OC(=O)C(OC(=O)c4ccccc4)C(NC(=O)OC(C)(C)C)c4ccccc4)CC(O)(C(OC(=O)c4ccccc4)C21)C3(C)C (centres unmarked) [Compound 2, 2′ BENZOYL DOCETAXEL] |  |  |  | Kd (albumin; [4]): 8.8 µM; IC50 (MX-1 mammary tumor cells [1]): 38 µM
3 | CCc1c2c(nc3ccc(O)cc13)-c1cc3c(c(=O)n1C2)COC(=O)[C@]3(O)CC [Compound 6] | 267 | 7.8 | 2.2 min | Kd (albumin; [4]): 484 µM
4 | CCC(=O)Oc1ccc2nc3c(cc2c1)Cn1c-3cc2c(c1=O)COC(=O)C2(CC)OC(=O)CC (centres unmarked) [Compound 7] | 45 | 19.8 |  | HPLC retention time (min) Condition 2, column temperature 70° C. [2]: 6.1** min
5 | CCCC(=O)Oc1ccc2nc3c(cc2c1)Cn1c-3cc2c(c1=O)COC(=O)[C@@]2(CC)OC(=O)CCC [Compound 8] | 152 | 21.9 |  | 
6 | CCC1(OC(=O)C(C)C)C(=O)OCc2c1cc1n(c2=O)Cc2cc3cc(OC(=O)C(C)C)ccc3nc2-1 (centres unmarked) [Compound 9] | 23 | 22.0 |  | 
7 | CCCCCC(=O)Oc1ccc2nc3c(cc2c1)Cn1c-3cc2c(c1=O)COC(=O)[C@@]2(CC)OC(=O)CCCCC [Compound 10, CAMPTOTHECIN 10,20-DI O HEXONATE] | 8 | 25.3 |  | 
8 | CCC1(OC(=O)CNC(=O)OC(C)(C)C)C(=O)OCc2c1cc1n(c2=O)Cc2cc3cc(OC(=O)CNC(=O)OC(C)(C)C)ccc3nc2-1 (centres unmarked) [Compound 11] | 221 | 20.9 |  | 
9 | CCC1(OC(=O)COC)C(=O)OCc2c1cc1n(c2=O)Cc2cc3cc(OC(=O)COC)ccc3nc2-1 (centres unmarked) [Compound 12] | 372 | 14.1 |  | 
10 | CCC1(OC(=O)CN)C(=O)OCc2c1cc1n(c2=O)Cc2cc3cc(OC(=O)CN)ccc3nc2-1 (centres unmarked) [Compound 13] | 242 | 6.1 |  | 
11 | CCC1(OC(=O)c2ccccc2)C(=O)OCc2c1cc1n(c2=O)Cc2cc3cc(OC(=O)c4ccccc4)ccc3nc2-1 (centres unmarked) [Compound 14] | 740 | 22.9 |  | 
12 | CCC(=O)Oc1ccc2nc3c(c(CC)c2c1)Cn1c-3cc2c(c1=O)COC(=O)[C@@]2(CC)OC(=O)CC [Compound 15] | 28 | 20.8 |  | HPLC retention time (min) Condition 2, column temperature 70° C. [2]: 9.3** min
13 | CCCCCC(=O)Oc1ccc2nc3c(cc2c1)Cn1c-3cc2c(c1=O)COC(=O)C2(CC)OC(=O)CCCCC (centres unmarked) [Compound 16] | 4 |  |  | 
14 | C=CCNC1=C2C[C@@H](C)C[C@H](OC)[C@H](O)[C@@H](C)/C=C(\C)[C@H](OC(N)=O)[C@@H](OC)/C=C\C=C(/C)C(=O)NC(=CC1=O)C2=O [Compound 17AAG, 17AAG, reference compound] | 3 |  | 14.9 min | 
15 | CCCCCCCCCC(=O)Oc1ccc2nc3c(c(CC)c2c1)Cn1c-3cc2c(c1=O)COC(=O)[C@@]2(CC)OC(=O)CCCCCCCCC [Compound 17] | 2000 |  | 31.2 min | 
16 | CCCCCCCCCCCCCC(=O)Oc1ccc2nc3c(c(CC)c2c1)Cn1c-3cc2c(c1=O)COC(=O)[C@@]2(CC)OC(=O)CCCCCCCCCCCCC [Compound 18] |  |  | 31.2 min | Cytotoxicity on MX-1, IC50 (MX-1 mammary tumor cells [1]; [5]): Inactive

Row | Compound | IC50 (MX-1 mammary tumor cells [1]; [5]) [µM] | HPLC retention time (min) Condition 1 [2] [min] | HPLC retention time (min) Condition 2 [2] | also measured
17 | CCCCCCCCCCCC(=O)Oc1ccc2nc3c(c(CC)c2c1)Cn1c-3cc2c(c1=O)COC(=O)[C@@]2(CC)OC(=O)CCCCCCCCCCC [Compound 19] |  |  | 31.2 min | Cytotoxicity on MX-1, IC50 (MX-1 mammary tumor cells [1]; [5]): Inactive
18 | CCCCCCCCCCCCCCCCCC(=O)Oc1ccc2nc3c(c(CC)c2c1)Cn1c-3cc2c(c1=O)COC(=O)[C@@]2(CC)OC(=O)CCCCCCCCCCCCCCCCC [Compound 20] |  |  | 30.6 min | Cytotoxicity on MX-1, IC50 (MX-1 mammary tumor cells [1]; [5]): Inactive
19 | CCc1c2c(nc3ccc(OC(=O)CCCC(C)CC)cc13)-c1cc3c(c(=O)n1C2)COC(=O)[C@@]3(CC)OC(=O)CCCC(C)CC (some centres unmarked) [Compound 21] | 295 |  | 40.2 min | 
20 | CCCCCCCCCCCCCCCC(=O)Oc1ccc2nc3c(cc2c1)Cn1c-3cc2c(c1=O)COC(=O)C2(CC)OC(=O)CCCCCCCCCCCCCCC (centres unmarked) [Compound 22] |  |  | 30.5 min | Cytotoxicity on MX-1, IC50 (MX-1 mammary tumor cells [1]; [5]): Inactive
21 | COc1cc2c(c(OC)c1OC)-c1ccc(SC)c(=O)cc1[C@@H](NC(=O)CCNC(=O)N[C@H]1CCc3cc(OC)c(OC)c(OC)c3-c3ccc(SC)c(=O)cc31)CC2 [Compound 24] |  |  |  | Kd (albumin): 109 µM; IC50 (MX-1 mammary tumor cells [1]): 37 µM
22 | COc1cc2c(c(OC)c1OC)-c1ccc(SC)c(=O)cc1[C@@H](NC(=O)CCCCCCCCC(=O)N[C@H]1CCc3cc(OC)c(OC)c(OC)c3-c3ccc(SC)c(=O)cc31)CC2 [Compound 25] |  |  |  | Kd (albumin): 30 µM; IC50 (MX-1 mammary tumor cells [1]): 155 µM
23 | COc1cc2c(c(OC)c1OC)-c1ccc(SC)c(=O)cc1[C@@H](NC(=O)c1cncc(C(=O)N[C@H]3CCc4cc(OC)c(OC)c(OC)c4-c4ccc(SC)c(=O)cc43)c1)CC2 [Compound 26] |  |  |  | Kd (albumin): 28 µM; IC50 (MX-1 mammary tumor cells [1]): 361 µM
24 | COc1cc2c(c(OC)c1OC)-c1ccc(SC)c(=O)cc1[C@@H](NC(=O)C1CCCC(C(=O)N[C@H]3CCc4cc(OC)c(OC)c(OC)c4-c4ccc(SC)c(=O)cc43)C1)CC2 (some centres unmarked) [Compound 27] |  |  |  | Kd (albumin): 52 µM
25 | COC1C=CC=C(C)C(=O)NC2=CC(=O)C(N3CC3C)=C(CC(C)CC(OC)C(O)C(C)C=C(C)C1OC(N)=O)C2=O (centres unmarked) [Compound 30, 17-METHYLAZIRIDINYL-17-DEMETHOXYGELDANAMYCIN] |  |  | 11.1 min and 11.6 min | IC50 (MX-1 mammary tumor cells [3]): 0.3 µM
26 | CC[C@@]1(O)C(=O)OCc2c1cc1n(c2=O)Cc2cc3cc(O)ccc3nc2-1 [Compound 32] |  | 6.1 | 1.9 min | Kd (albumin): 1200 µM; IC50 (MX-1 mammary tumor cells [1]): 13 µM
27 | CC(=O)O[C@@]12CO[C@@H]1C[C@H](O)[C@@]1(C)C(=O)[C@H](O)C3=C(C)[C@@H](OC(=O)[C@H](O)[C@@H](NC(=O)OC(C)(C)C)c4ccccc4)C[C@@](O)([C@@H](OC(=O)c4ccccc4)[C@H]21)C3(C)C [Docetaxel, reference compound] |  |  | 9.0 min | Kd (albumin; [4]): 5.45 µM
28 | COC1=C2C[C@@H](C)C[C@H](OC)[C@H](O)[C@@H](C)/C=C(\C)[C@H](OC(N)=O)[C@@H](OC)/C=C\C=C(/C)C(=O)NC(=CC1=O)C2=O [Geldanamycin, reference compound] | 0.5 |  | 10.8 min | 
29 | CC(=O)O[C@H]1C(=O)[C@@]2(C)[C@H]([C@H](OC(=O)c3ccccc3)[C@]3(O)C[C@H](OC(=O)[C@H](O)[C@@H](NC(=O)c4ccccc4)c4ccccc4)C(C)=C1C3(C)C)[C@]1(OC(C)=O)CO[C@@H]1C[C@@H]2O [Paclitaxel, reference compound] |  |  | 10.5 min | Kd (albumin; [4]): 39.8 µM
30 | CO[C@H]1C[C@@H]2CC[C@@H](C)[C@@](O)(O2)C(=O)C(=O)N2CCCC[C@H]2C(=O)O[C@H]([C@H](C)C[C@@H]2CC[C@@H](O)[C@H](OC)C2)CC(=O)[C@H](C)/C=C(\C)[C@@H](O)[C@@H](OC)C(=O)[C@H](C)C[C@H](C)/C=C/C=C/C=C/1C [Rapamycin, reference compound] | 27 |  |  | Kd (albumin; [4]): 102 µM
31 | Benzoyl rapamycin [Compound 23] |  |  |  | HPLC retention time (min) Condition 2, column temperature 70° C. [2]: 32.6** min
